Laboratory results taken from patent US11026942B2, “Agent for preventing and/or treating Alzheimer's disease” (KYOTO UNIVERSITY, priority 2015, dated 2021).

Assays:
Format in all cases: cell-based, human
[1] = tested on: Aβ; assay: Aβ pathology (Aβ amount in medium) in cerebral cortex nerve cells induced from FAD1 patient iPS cells; settings: FAD1 nerve cells; low dose
Text: To perform induction from iPS cells to the cerebral cortex nerve early and with high reproducibility, iPS cells introduced with human Neurogenin 2 gene (NGN2) linked to doxycycline-inducible promoter by using PiggyBac were used (FIG. 1a, FIG. 1b, FIG. 4a and FIG. 4b). IPS cells prepared from 4 patients with familial Alzheimer's disease (FAD), 2 patients with sporadic Alzheimer's disease (SAD) and 4 healthy individuals (HC) were used. The iPS cells were established by the method described in Okita K et al., Nature. […]
(§1) To further study reproducibility of the candidate drugs obtained by the primary screening, secondary screening was conducted. In addition to Aβ40, Aβ42, Aβ42/40 ratio, Aβ38, Aβ43, sAPPα, sAPPβ were also studied and each numerical value was obtained.

[2] = tested on: Aβ42/40 ratio; assay: Aβ42/40 ratio in FAD1 iPS cell-derived nerve cells (primary/secondary screening, dose dependency); settings: secondary screening
In short: (§2)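 Cerebral cortex neurons were induced from FAD1 patient iPS cells by doxycycline-inducible NGN2, delivered by PiggyBac. Aβ40 and Aβ42 in the culture medium gave the Aβ42/40 ratio, with dose dependency examined in primary and secondary screens. The secondary screen also covered Aβ38, Aβ43, sAPPα and sAPPβ.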

[3] = tested on: Aβ38; assay: Aβ38 in FAD1 iPS cell-derived nerve cells (secondary screening); set-up: scale not given here
Experimental: as §1

[4] = tested on: sAPPβ; assay: sAPPβ in FAD1 iPS cell-derived nerve cells (secondary screening); set-up: sAPPβ: scale not given here; settings: secondary screening, FAD1 iPS cell-derived nerve cells
Experimental: as §1

[5] = tested on: Aβ42; assay: Aβ42 in FAD1 iPS cell-derived nerve cells (primary/secondary screening, dose dependency); settings: secondary screening, FAD1 iPS cell-derived nerve cells, numerical value (Aβ change rate)
In short: as §2

[6] = tested on: Aβ43; assay: Aβ43 in FAD1 iPS cell-derived nerve cells (secondary screening); set-up: scale not given here
Experimental: as §1

[7] = tested on: sAPPα; assay: sAPPα in FAD1 iPS cell-derived nerve cells (secondary screening); set-up: scale not given here; settings: secondary screening, FAD1 iPS cell-derived nerve cells
Experimental: as §1

Row | SMILES | Aβ pathology [1] | Ratio Aβ42/40 [2] | Aβ38 [3] | sAPPβ [4] | Aβ42 [5] | Aβ43 [6] | sAPPα [7]
1 | Cc1ccc(NC(=O)c2ccc(CN3CCN(C)CC3)cc2)cc1Nc1nccc(-c2cccnc2)n1 [imatinib] | not improved | – | – | – | – | – | –
2 | CC(C(O)c1ccc(O)cc1)N1CCC(Cc2ccccc2)CC1 (stereo not shown) [compound 44, IFENPRODIL] | – | 0.96 | 1.23 | 1.09 | 1 | 1.03 | 1.13
3 | CC(C)(C)NC[C@H](O)c1ccc(O)c(CO)c1 [compound 73, LEVALBUTEROL] | – | 0.92 | 0.99 | 0.66 | 0.84 | 0.91 | 0.74
4 | CC1CC(OC(=O)C(O)c2ccccc2)CC(C)(C)C1 (stereo not shown) [compound 40, CYCLANDELATE] | – | 0.8 | 1.09 | 0.84 | 0.88 | 0.98 | 0.92
5 | CN1C(=O)CC[C@H]1c1cccnc1 [compound 10, COTININE] | – | 0.94 | 1.08 | 0.81 | 0.87 | 0.87 | 0.81
6 | Cc1cc2c(cc1S(N)(=O)=O)S(=O)(=O)CCC2 [compound 119] | – | 0.78 | 1.14 | 0.87 | 0.74 | 1.16 | 1.07
7 | CCOC(=O)c1ccc(N)cc1 [compound 51, BENZOCAINE] | – | 1.03 | 1.05 | 0.87 | 0.94 | 0.99 | 0.8
8 | CN1CCN(C(c2ccccc2)c2ccccc2)CC1 [compound 12, CYCLIZINE] | – | 0.95 | 1.23 | 1.3 | 1.04 | 1.06 | 1.03
9 | CN1CCN(C2=Nc3ccccc3Oc3ccc(Cl)cc32)CC1 [compound 25, LOXAPINE] | – | 0.98 | 1.11 | 1.11 | 0.94 | 1.14 | 1.15
10 | CC(C)(C)NCC(O)c1cc(Cl)c(N)c(Cl)c1 (stereo not shown) [compound 85, CLENBUTEROL] | – | 0.85 | 1.17 | 0.84 | 0.88 | 0.94 | 0.86
11 | C[C@H](CCC(=O)O)[C@H]1CC[C@H]2[C@@H]3C(=O)C[C@@H]4CC(=O)CC[C@]4(C)[C@H]3CC(=O)[C@]12C [compound 103, DEHYDROCHOLIC ACID] | – | 0.99 | 1.09 | 0.78 | 0.95 | 1.01 | 0.75
12 | CSc1ccc2c(c1)C(N1CCN(C)CC1)Cc1ccccc1S2 (stereo not shown) [compound 31, METITEPINE] | – | 0.86 | 1.03 | 0.66 | 0.83 | 0.88 | 0.76
13 | Cc1cccc(C(=O)O)c1O [compound 67, HYDROXYTOLUIC ACID] | – | 0.86 | 0.92 | 0.66 | 0.79 | 0.77 | 0.83
14 | CC(C)(C)NCC(O)c1ccccc1Cl (stereo not shown) [compound 82, TULOBUTEROL] | – | 0.85 | 1 | 0.74 | 0.83 | 0.84 | 0.87
15 | C[C@H](CS)C(=O)N1CCC[C@H]1C(=O)O [compound 57, CAPTOPRIL] | – | 0.94 | 1.09 | 0.91 | 0.87 | 0.86 | 0.91
16 | CN1CCCN=C1COC(=O)C(O)(c1ccccc1)C1CCCCC1 (stereo not shown) [compound 1, OXYPHENCYCLIMINE] | – | 1.03 | 1.08 | 1 | 0.99 | 0.98 | 0.91
17 | O=C(O)[C@H]1/C(=C/CO)O[C@@H]2CC(=O)N21 [compound 118, CLAVULANIC ACID] | – | 0.88 | 1.01 | 1 | 0.84 | 0.75 | 0.88
18 | O=c1c2ccccc2[se]n1-c1ccccc1 [compound 45, EBSELEN] | – | 1.04 | 1.2 | 1.35 | 1 | 1.16 | 1.17
19 | FC(F)(F)COCC(F)(F)F [compound 130, FLUROTHYL] | – | 0.85 | 1.03 | 0.69 | 0.8 | 0.81 | 0.79
20 | CC1=NS(=O)(=O)c2cc(Cl)ccc2N1 [compound 125, DIAZOXIDE] | – | 0.97 | 1.08 | 0.84 | 0.92 | 0.9 | 0.84
21 | COc1cc2nc(N(C)CCCNC(=O)C3CCCO3)nc(N)c2cc1OC (stereo not shown) [compound 81, ALFLUZOSIN] | – | 0.87 | 1.22 | 0.97 | 0.96 | 1.03 | 0.9
22 | Cc1cc(CC(=O)O)n(C)c1C(=O)c1ccc(Cl)cc1 [compound 65, ZOMEPIRAC] | – | 0.85 | 0.92 | 0.76 | 0.79 | 0.83 | 0.73
23 | CN(C)CCc1c[nH]c2ccc(Cn3cncn3)cc12 [compound 80, RIZATRIPTAN] | – | 0.85 | 1.2 | 1.08 | 0.96 | 1.07 | 0.96
24 | CC(=O)Nc1cccc(O)c1 [compound 93, METACETAMOL] | – | 0.86 | 0.95 | 0.89 | 0.77 | 0.74 | 0.83
25 | Nc1nc(/C(=C/CC(=O)O)C(=O)N[C@@H]2C(=O)N3C(C(=O)O)=CCS[C@H]23)cs1 [compound 62, CEFTIBUTEN] | – | 0.87 | 1.01 | 0.55 | 0.79 | 0.83 | 0.76
26 | CC(C)CC(N(C)C)C1(c2ccc(Cl)cc2)CCC1 (stereo not shown) [compound 126, SIBUTRAMINE] | – | 0.87 | 1.05 | 0.92 | 0.88 | 0.87 | 0.8
27 | CCN(CC)CCNC(=O)c1cc(Br)c(N)cc1OC [compound 86, BROMOPRIDE] | – | 0.84 | 1.07 | 0.85 | 0.84 | 0.9 | 1
